Converted amounts (≈) assume the structure as drawn.
Key:
Staphylococcus aureus [1] = assay: Antibacterial activity against methicillin-resistant Staphylococcus aureus HS-663 assessed as bacterial growth inhibition; format: functional
Staphylococcus aureus [2] = assay: Antibacterial activity against methicillin-susceptible Staphylococcus aureus Newman assessed as bacterial growth inhibition; format: functional
Staphylococcus aureus [3] = assay: Antibacterial activity against methicillin-resistant Staphylococcus aureus USA300 assessed as bacterial growth inhibition; format: functional
Staphylococcus aureus [4] = assay: Antibacterial activity against vancomycin-intermediate Staphylococcus aureus Mu50 assessed as bacterial growth inhibition; format: functional
Enterococcus faecium [5] = assay: Antibacterial activity against vancomycin resistant Enterococcus faecium Van B V(R) assessed as inhibition of bacterial growth; format: functional
Escherichia coli = assay: Antibacterial activity against Escherichia coli AB1157 assessed as bacterial growth inhibition; format: functional
Enterococcus faecium [6] = assay: Antibacterial activity against vancomycin resistant Enterococcus faecium Van A HS-06188 assessed as inhibition of bacterial growth; format: functional
Acinetobacter baumannii = assay: Antibacterial activity against Acinetobacter baumannii assessed as bacterial growth inhibition; format: functional
Enterococcus faecium [7] = assay: Antibacterial activity against vancomycin resistant Enterococcus faecium Van M HS-0847 assessed as inhibition of bacterial growth; format: functional
Enterococcus faecium [8] = assay: Antibacterial activity against vancomycin resistant Enterococcus faecium Van M HS-08267 assessed as inhibition of bacterial growth; format: functional
Enterococcus faecium [9] = assay: Antibacterial activity against vancomycin resistant Enterococcus faecium Van A HS-0649 assessed as inhibition of bacterial growth; format: functional
L02 = assay: Cytotoxicity against human L02 cells assessed as reduction in cell viability >= 12.5 uM; format: cell-based
Enterococcus faecium [10] = assay: Potency index, ratio of Vancomycin MIC to test compound MIC for antibacterial activity against vancomycin resistant Enterococcus faecium Van B V(R) assessed as inhibition of bacterial growth; format: functional
Enterococcus faecium [11] = assay: Potency index, ratio of Vancomycin MIC to test compound MIC for antibacterial activity against vancomycin resistant Enterococcus faecium Van M HS-0847 assessed as inhibition of bacterial growth; format: functional
Enterococcus faecium [12] = assay: Potency index, ratio of Vancomycin MIC to test compound MIC for antibacterial activity against vancomycin resistant Enterococcus faecium Van A HS-06188 assessed as inhibition of bacterial growth; format: functional
Enterococcus faecium [13] = assay: Potency index, ratio of Vancomycin MIC to test compound MIC for antibacterial activity against vancomycin resistant Enterococcus faecium Van M HS-08267 assessed as inhibition of bacterial growth; format: functional

| SMILES | MIC (Staphylococcus aureus [1]) | MIC (Staphylococcus aureus [2]) | MIC (Staphylococcus aureus [3]) | MIC (Staphylococcus aureus [4]) | MIC (Enterococcus faecium [5]) | MIC (Escherichia coli) | MIC (Enterococcus faecium [6]) | MIC (Acinetobacter baumannii) | MIC (Enterococcus faecium [7]) | MIC (Enterococcus faecium [8]) | MIC (Enterococcus faecium [9]) | Activity (L02) | Ratio (Enterococcus faecium [10]) | Ratio (Enterococcus faecium [11]) | Ratio (Enterococcus faecium [12]) | Ratio (Enterococcus faecium [13]) |
| --- | --- | --- | --- | --- | --- | --- | --- | --- | --- | --- | --- | --- | --- | --- | --- | --- |
| CN[C@H](CC(C)C)C(=O)N[C@H]1C(=O)N[C@@H](CC(N)=O)C(=O)N[C@H]2C(=O)N[C@H]3C(=O)N[C@H](C(=O)N[C@H](C(=O)N[C@@H](CS)C(=O)N[C@@H](CCCNC(=N)N)C(=O)N[C@@H](CCCCN)C(=O)N[C@H](C(=O)N[C@@H](CCCNC(=N)N)C(=O)NCC(=O)N4CCC[C@H]4C(=O)N4CCC[C@H]4C(=O)O)C(C)C)c4cc(O)cc(O)c4-c4cc3ccc4O)[C@H](O)c3ccc(c(Cl)c3)Oc3cc2cc(c3O[C@@H]2O[C@H](CO)[C@@H](O)[C@H](O)[C@H]2O[C@H]2C[C@](C)(N)[C@H](O)[C@H](C)O2)Oc2ccc(cc2Cl)[C@H]1O | 16 µg/mL (≈ 6.83 µM) | 32 µg/mL (≈ 13.7 µM) | 16 µg/mL (≈ 6.83 µM) | 64 µg/mL (≈ 27.3 µM) | 16 µg/mL (≈ 6.83 µM) | > 128 µg/mL | 16 µg/mL (≈ 6.83 µM) | > 128 µg/mL | 32 µg/mL (≈ 13.7 µM) | 32 µg/mL (≈ 13.7 µM) |  |  |  |  |  |  |
| CN[C@H](CC(C)C)C(=O)N[C@H]1C(=O)N[C@@H](CC(N)=O)C(=O)N[C@H]2C(=O)N[C@H]3C(=O)N[C@H](C(=O)N[C@H](C(=O)N[C@@H](CCCNC(=N)N)C(=O)O)c4cc(O)cc(O)c4-c4cc3ccc4O)[C@H](O)c3ccc(c(Cl)c3)Oc3cc2cc(c3O[C@@H]2O[C@H](CO)[C@@H](O)[C@H](O)[C@H]2O[C@H]2C[C@](C)(N)[C@H](O)[C@H](C)O2)Oc2ccc(cc2Cl)[C@H]1O | 0.5 µg/mL (≈ 0.311 µM) | 8 µg/mL (≈ 4.98 µM) | 4 µg/mL (≈ 2.49 µM) | 64 µg/mL (≈ 39.9 µM) | 64 µg/mL (≈ 39.9 µM) | > 128 µg/mL | 128 µg/mL (≈ 79.7 µM) | > 128 µg/mL | 128 µg/mL (≈ 79.7 µM) | 128 µg/mL (≈ 79.7 µM) | > 128 µg/mL | Toxic |  |  |  |  |
| CN[C@H](CC(C)C)C(=O)N[C@H]1C(=O)N[C@@H](CC(N)=O)C(=O)N[C@H]2C(=O)N[C@H]3C(=O)N[C@H](C(=O)N[C@H](C(=O)NNCc4ccc(-c5ccc(C(F)(F)F)cc5)cc4)c4cc(O)cc(O)c4-c4cc3ccc4O)[C@H](O)c3ccc(c(Cl)c3)Oc3cc2cc(c3O[C@@H]2O[C@H](CO)[C@@H](O)[C@H](O)[C@H]2O[C@H]2C[C@](C)(N)[C@H](O)[C@H](C)O2)Oc2ccc(cc2Cl)[C@H]1O | 0.0625 µg/mL (≈ 0.0368 µM) | 1 µg/mL (≈ 0.589 µM) | 0.5 µg/mL (≈ 0.295 µM) | 2 µg/mL (≈ 1.18 µM) | 4 µg/mL (≈ 2.36 µM) | > 128 µg/mL | 8 µg/mL (≈ 4.71 µM) | 64 µg/mL (≈ 37.7 µM) | 4 µg/mL (≈ 2.36 µM) | 2 µg/mL (≈ 1.18 µM) | 8 µg/mL (≈ 4.71 µM) |  | 8 | 8 | 8 | 8 |
| CN[C@H](CC(C)C)C(=O)N[C@H]1C(=O)N[C@@H](CC(N)=O)C(=O)N[C@H]2C(=O)N[C@H]3C(=O)N[C@H](C(=O)N[C@H](C(=O)NNCc4ccccc4)c4cc(O)cc(O)c4-c4cc3ccc4O)[C@H](O)c3ccc(c(Cl)c3)Oc3cc2cc(c3O[C@@H]2O[C@H](CO)[C@@H](O)[C@H](O)[C@H]2O[C@H]2C[C@](C)(N)[C@H](O)[C@H](C)O2)Oc2ccc(cc2Cl)[C@H]1O | 0.25 µg/mL (≈ 0.161 µM) | 1 µg/mL (≈ 0.644 µM) | 1 µg/mL (≈ 0.644 µM) | 4 µg/mL (≈ 2.57 µM) | 128 µg/mL (≈ 82.4 µM) | > 128 µg/mL | 64 µg/mL (≈ 41.2 µM) | > 128 µg/mL | 64 µg/mL (≈ 41.2 µM) | 32 µg/mL (≈ 20.6 µM) | 128 µg/mL (≈ 82.4 µM) |  |  |  |  |  |
| CN[C@H](CC(C)C)C(=O)N[C@H]1C(=O)N[C@@H](CC(N)=O)C(=O)N[C@H]2C(=O)N[C@H]3C(=O)N[C@H](C(=O)N[C@H](C(=O)N/N=C/c4ccc(-c5ccc(C(F)(F)F)cc5)cc4)c4cc(O)cc(O)c4-c4cc3ccc4O)[C@H](O)c3ccc(c(Cl)c3)Oc3cc2cc(c3O[C@@H]2O[C@H](CO)[C@@H](O)[C@H](O)[C@H]2O[C@H]2C[C@](C)(N)[C@H](O)[C@H](C)O2)Oc2ccc(cc2Cl)[C@H]1O | 0.0625 µg/mL (≈ 0.0369 µM) | 1 µg/mL (≈ 0.59 µM) | 0.5 µg/mL (≈ 0.295 µM) | 2 µg/mL (≈ 1.18 µM) | 1 µg/mL (≈ 0.59 µM) | > 128 µg/mL | 4 µg/mL (≈ 2.36 µM) | > 128 µg/mL | 4 µg/mL (≈ 2.36 µM) | 2 µg/mL (≈ 1.18 µM) | 4 µg/mL (≈ 2.36 µM) |  | 8 | 8 | 8 | 8 |
| CN[C@H](CC(C)C)C(=O)N[C@H]1C(=O)N[C@@H](CC(N)=O)C(=O)N[C@H]2C(=O)N[C@H]3C(=O)N[C@H](C(=O)N[C@H](C(=O)N/N=C/c4ccccc4)c4cc(O)cc(O)c4-c4cc3ccc4O)[C@H](O)c3ccc(c(Cl)c3)Oc3cc2cc(c3O[C@@H]2O[C@H](CO)[C@@H](O)[C@H](O)[C@H]2O[C@H]2C[C@](C)(N)[C@H](O)[C@H](C)O2)Oc2ccc(cc2Cl)[C@H]1O | 0.5 µg/mL (≈ 0.322 µM) | 2 µg/mL (≈ 1.29 µM) | 2 µg/mL (≈ 1.29 µM) | 16 µg/mL (≈ 10.3 µM) | 128 µg/mL (≈ 82.5 µM) | > 128 µg/mL | 128 µg/mL (≈ 82.5 µM) | > 128 µg/mL | 64 µg/mL (≈ 41.3 µM) | 64 µg/mL (≈ 41.3 µM) | 128 µg/mL (≈ 82.5 µM) | Toxic |  |  |  |  |
| CC[C@H](C)[C@H](NC(=O)[C@H](CCCCN)NC(=O)[C@@H](NC(=O)[C@H](CC(N)=O)NC(=O)[C@H](CS)NC(=O)[C@H]1NC(=O)[C@H]2NC(=O)[C@H](NC(=O)[C@@H]3NC(=O)[C@H](CC(N)=O)NC(=O)[C@H](NC(=O)[C@@H](CC(C)C)NC)[C@H](O)c4ccc(c(Cl)c4)Oc4cc3cc(c4O[C@@H]3O[C@H](CO)[C@@H](O)[C@H](O)[C@H]3O[C@H]3C[C@](C)(N)[C@H](O)[C@H](C)O3)Oc3ccc(cc3Cl)[C@H]2O)c2ccc(O)c(c2)-c2c(O)cc(O)cc21)[C@@H](C)CC)C(=O)N[C@@H](CO)C(=O)NCC(=O)N[C@@H](CCCCN)C(=O)N[C@@H](Cc1c[nH]c2ccccc12)C(=O)N[C@@H](CCCCN)C(=O)N[C@@H](C)C(=O)N[C@@H](CCC(N)=O)C(=O)N[C@@H](CCCCN)C(=O)N[C@@H](CCCNC(=N)N)C(=O)N[C@@H](Cc1ccccc1)C(=O)N[C@@H](CC(C)C)C(=O)O | 16 µg/mL (≈ 4.77 µM) | 32 µg/mL (≈ 9.55 µM) | 32 µg/mL (≈ 9.55 µM) | 32 µg/mL (≈ 9.55 µM) | 32 µg/mL (≈ 9.55 µM) | > 128 µg/mL | 64 µg/mL (≈ 19.1 µM) | > 128 µg/mL | 32 µg/mL (≈ 9.55 µM) | 32 µg/mL (≈ 9.55 µM) |  |  |  |  |  |  |
| CN[C@H](CC(C)C)C(=O)N[C@H]1C(=O)N[C@@H](CC(N)=O)C(=O)N[C@H]2C(=O)N[C@H]3C(=O)N[C@H](C(=O)N[C@H](C(=O)N[C@@H](CCCNC(=N)N)C(N)=O)c4cc(O)cc(O)c4-c4cc3ccc4O)[C@H](O)c3ccc(c(Cl)c3)Oc3cc2cc(c3O[C@@H]2O[C@H](CO)[C@@H](O)[C@H](O)[C@H]2O[C@H]2C[C@](C)(N)[C@H](O)[C@H](C)O2)Oc2ccc(cc2Cl)[C@H]1O | 0.25 µg/mL (≈ 0.156 µM) | 2 µg/mL (≈ 1.25 µM) |  | 2 µg/mL (≈ 1.25 µM) | 64 µg/mL (≈ 39.9 µM) | 32 µg/mL (≈ 19.9 µM) | 64 µg/mL (≈ 39.9 µM) | > 128 µg/mL | 64 µg/mL (≈ 39.9 µM) | 64 µg/mL (≈ 39.9 µM) | 64 µg/mL (≈ 39.9 µM) | Toxic |  |  |  |  |
| CN[C@H](CC(C)C)C(=O)N[C@H]1C(=O)N[C@@H](CC(N)=O)C(=O)N[C@H]2C(=O)N[C@H]3C(=O)N[C@H](C(=O)N[C@H](C(=O)O)c4cc(O)cc(O)c4-c4cc3ccc4O)[C@H](O)c3ccc(c(Cl)c3)Oc3cc2cc(c3O[C@@H]2O[C@H](CO)[C@@H](O)[C@H](O)[C@H]2O[C@H]2C[C@](C)(N)[C@H](O)[C@H](C)O2)Oc2ccc(cc2Cl)[C@H]1O [VANCOMYCIN] | 0.25 µg/mL (≈ 0.173 µM) |  |  | 8 µg/mL (≈ 5.52 µM) |  |  |  |  | 64 µg/mL (≈ 44.2 µM) |  |  |  |  |  |  |  |

— ChEMBL document CHEMBL4808179 (Bioorg Med Chem Lett, 2021)
